The results in this text go back to ChEMBL document CHEMBL2151024, “Synthesis and Biological Evaluation of a Biotinylated Paclitaxel With an Extra-Long Chain Spacer Arm” (ACS Med Chem Lett, 2012).

Active and inactive are the calls of the source. The calls are words filed in the database; no cut-off is given here.

In one assay the target is Tubulin (Sus scrofa, UniProt P02554+P02550). Briefly: Induction of porcine brain tubulin polymerization after 20 mins by Bradford assay.
Assay [1] is described as follows: Stabilization of microtubule using Cy3-streptavidin-tagged compound by fluorescence microscopy.
A short description of assay [2]: Stabilization of microtubule by fluorescence microscopy.

On to `CC(=O)O[C@H]1C(=O)[C@]2(C)[C@@H](OC(=O)CCNC(=O)CCCCCNC(=O)CCCCCNC(=O)CCCC[C@@H]3SC[C@@H]4NC(=O)N[C@@H]43)C[C@H]3OC[C@@]3(OC(C)=O)[C@H]2[C@H](OC(=O)c2ccccc2)[C@]2(O)C[C@H](OC(=O)[C@H](O)[C@@H](NC(=O)c3ccccc3)c3ccccc3)C(C)=C1C2(C)C`, for which the EC50 on Tubulin came out at 680 nM. The result in assay [1] and in assay [2] was Active.

On Tubulin, `CC(=O)O[C@H]1C(=O)[C@@]2(C)[C@H]([C@H](OC(=O)c3ccccc3)[C@]3(O)C[C@H](OC(=O)[C@H](O)[C@@H](NC(=O)c4ccccc4)c4ccccc4)C(C)=C1C3(C)C)[C@]1(OC(C)=O)CO[C@@H]1C[C@@H]2O` [PACLITAXEL] displayed an EC50 of 520 nM. The result in assay [2] was Active.
